Measured values published in patent publication US20060116407A1, “Amide derivatives” (priority 2004, published 2006).

How the values were obtained:
[1] = target: T1, HER-2 (Homo sapiens, UniProt P04626); experiment: Inhibition of HER-2 phosphorylation in Calu-3 tumor cell line; format: cell-based; settings: Calu-3 cells, compound 1 μM, 16 h, pY 1248 in HER-2, percentage of DMSO control; for inhibition at 1 µM: read-out: Percent inhibition of HER2-phosphorylation (compound concentration 1 μM)
T1 construct: endogenous in cells; host or cells: Calu-3 (ATCC HTB-55)
T1 sequence (P04626 23-1255): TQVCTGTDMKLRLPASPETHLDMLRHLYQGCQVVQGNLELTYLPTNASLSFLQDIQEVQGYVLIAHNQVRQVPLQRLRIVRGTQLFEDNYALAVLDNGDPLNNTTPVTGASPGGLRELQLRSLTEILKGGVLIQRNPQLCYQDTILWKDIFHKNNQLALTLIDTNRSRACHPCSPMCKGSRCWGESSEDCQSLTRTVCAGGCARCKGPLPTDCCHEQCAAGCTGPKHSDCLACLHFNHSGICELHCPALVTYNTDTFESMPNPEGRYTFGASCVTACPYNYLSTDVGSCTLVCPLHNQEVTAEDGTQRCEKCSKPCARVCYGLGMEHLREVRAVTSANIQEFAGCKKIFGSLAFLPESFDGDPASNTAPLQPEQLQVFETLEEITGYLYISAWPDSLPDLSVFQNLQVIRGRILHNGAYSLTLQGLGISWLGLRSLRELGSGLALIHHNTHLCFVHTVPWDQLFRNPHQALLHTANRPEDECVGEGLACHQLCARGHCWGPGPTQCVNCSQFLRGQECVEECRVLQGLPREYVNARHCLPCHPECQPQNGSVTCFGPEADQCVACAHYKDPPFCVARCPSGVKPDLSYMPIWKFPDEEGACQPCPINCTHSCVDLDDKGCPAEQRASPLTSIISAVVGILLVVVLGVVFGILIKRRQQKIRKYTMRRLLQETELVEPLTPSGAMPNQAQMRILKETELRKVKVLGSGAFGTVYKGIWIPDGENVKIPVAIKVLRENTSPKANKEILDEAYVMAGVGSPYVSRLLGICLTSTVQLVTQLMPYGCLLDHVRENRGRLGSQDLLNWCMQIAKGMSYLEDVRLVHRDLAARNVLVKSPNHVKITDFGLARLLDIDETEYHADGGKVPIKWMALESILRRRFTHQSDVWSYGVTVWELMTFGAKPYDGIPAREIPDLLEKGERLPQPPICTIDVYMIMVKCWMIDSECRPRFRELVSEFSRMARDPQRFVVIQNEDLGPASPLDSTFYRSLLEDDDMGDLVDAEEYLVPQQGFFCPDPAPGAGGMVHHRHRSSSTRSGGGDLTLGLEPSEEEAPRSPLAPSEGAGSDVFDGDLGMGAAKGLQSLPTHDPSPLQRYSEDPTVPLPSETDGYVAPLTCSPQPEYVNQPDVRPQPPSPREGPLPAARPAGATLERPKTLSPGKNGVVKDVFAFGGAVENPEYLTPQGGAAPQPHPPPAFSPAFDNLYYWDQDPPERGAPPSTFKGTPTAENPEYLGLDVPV
Protocol: Inhibition of HER-2 Phosphorylation in Calu-3 Tumor Cell Line
2×10^5 Calu-3 (ATTC HTB-55) cells per well were plated in a 12-well plate. After 4 days cells were starved for 16 h in Dulbecco's Modified Eagle Medium (DMEM)/0.5% Fetal Calf Serum (FCS)/1% Glutamine. During this 16 h period cells were incubated with a solution of the test compound in dimethylsulfoxide(DMSO), so that the final concentration of the compound is 1 μM and the final volume of DMSO is 0.5%. Afterwards cells were lysed in lyses buffer containing 1% Triton®X-100, 10% Glycerol, 1 mM Ethylene glycol-bis(2-aminoethylether)-N,N,N′,N′-tetraacetic acid (EGTA), 1.5 mM MgCl2, 150 mM NaCl, 50 mM 4-(2-hydroxyethyl)-1-piperazineethanesulfonic acid (HEPES) buffer pH 7.5, 1 mM Phenylmethylsulfonyl fluoride (PMSF), 10 ∥g/mL Aprotinin and […] Orthovanadate. Cell lysates were analyzed on a Sodium Dodecyl Sulfate Polyacrylamide Gel Electrophoresis (SDS PAGE) and after transfer to a nitrocellulose membrane detected with an antibody specifically recognizing the pY 1248 in HER-2. Inhibition of HER-2 phosphorylation is calculated as percentage of the control, which is treated with DMSO only.

[2] = system: HEK293 cells; experiment: Viability assay of HEK293 cells (CellTiter-Glo); format: cell-based; settings: Homo sapiens, 168 h, 7 days, 3 μM to 0.00015 μM, luminescence
Protocol: Viability Assay of HEK293 Cells
A viability assay was performed using the CellTiter-Glo™ Luminescent Cell Viability Assay (see Promega Corporation's Technical Publication No. 288, pp. 1-11 [revised 2.04] which is hereby incorporated by reference in its entirety). This assay is a homogeneous method of determining the number of viable cells in culture based on quantitation of the ATP present, which signals the presence of metabolically active cells. The assay is designed for use with multiwell formats, making it ideal for automated high-throughput screening (HTS), cell proliferation and cytotoxicity assays. The homogeneous assay procedure involves adding a single reagent (containing luciferase, luciferan substrate, and buffer) directly to cells cultured in serum-supplemented medium. Cell washing, removal of medium and multiple pipetting steps are not required. The system detects as few as 15 cells/well in a 384-well format in 10 minutes after adding reagent and mixing.
The homogeneous “add-mix-measure” format results in cell lysis and generation of a luminescent signal proportional to the amount of ATP present. The amount of ATP is directly proportional to the number of cells present in culture. The above-referenced assay generates a “glow-type” luminescent signal, produced by the luciferase reaction, which has a half-life generally greater than five hours, depending on cell type and medium used. The extended half-life eliminates the need to use reagent injectors and provides flexibility for continuous or batch mode processing of multiple plates. The unique homogeneous format avoids errors that may be introduced by other ATP measurement methods that require multiple steps.
HEK293 cells (human embryonic kidney cell line transformed by Adenovirus 5 fragments, ATCC-No. CRL 1573) were cultivated in Dulbecco's Modified Eagle Medium (DMEM) (1×) liquid (high glucose) (which includes L-Alanyl-L-Glutamine [a stabilized a form of L-Glutamine], 4500 mg/L glucose, and 110 mg/L sodium pyruvate) from Invitrogen Corporation (Invitrogen Catalog Number 31966-021 [now 10569-010] which is hereby incorporated by reference in its entirety), 5% Fetal Calf Serum (FCS, Sigma Cat-No. F4135 (FBS) which is hereby incorporated by reference in its entirety), and 100 Units/ml penicillin/100 μg/ml streptomycin(=Pen/Strep from Invitrogen Cat. No. 15140 which is hereby incorporated by reference in its entirety). For the assay the cells were seeded in 384 well plates, 5000 cells per well, in the same medium. The next day the test compounds were added in various concentrations ranging from 3 μM to 0.00015 μM (10 concentrations, 1:3 diluted). After 7 days the above viability assay was performed in accordance with the following steps: • Step 1: The cell-plate was equilibrated to room temperature for approximately 30 minutes and than the assay reagent was added. • Step 2: The contents were carefully mixed for 15 minutes to induce cell lysis. • Step 3: After 45 minutes the luminescent signal was measured in Victor 2, (scanning multiwell spectrophotometer, Wallac). Details: 1st Day: • Medium: Dulbecco's Modified Eagle Medium (DMEM) (1×) liquid (high glucose) (which includes L-Alanyl-L-Glutamine [a stabilized a form/source of L-Glutamine], 4500 mg/L glucose, and 110 mg/L sodium pyruvate) from Invitrogen Corporation (Invitrogen Catalog Number 31966-021 [now 10569-010]), 5% Fetal Calf Serum (FCS, Sigma Cat-No. F4135 (FBS)), and Pen/Strep (Invitrogen Cat. No. 15140). • HEK293 (ATCC-No. CRL 1573): 5000 cells in 60 μl per well of 384 well plate. (Greiner 781098, white plates) • Incubate 24 h at 37° C., 5% CO2 2nd Day: Induction (Substance Testing):
In general the dilution steeps are 1:3 a) Add 8 μl of 10 mM stock solution of compound to 72 μl DMSO b) dilute 9×1:3 (always 30 μl to 60 μl DMSO) in this DMSO dilution row (results in 10 wells with concentrations from 1000 μM to 0.06 μM) c) dilute each concentration 1: 4.8 (10 μl compound dilution to 38 μl medium) […]

SMILES | inhibition at 1 µM [1] | IC50 [2] | Percent inhibition of HER2-phosphorylation (compound concentration 1 μM) [1]
CN(C(=O)c1coc(COc2ccc(CCCCn3ccnn3)cc2)n1)c1ccc(Cl)cc1 [Example 2, 2-[4-(4-[1,2,3]Triazol-1-yl-butyl)-phenoxymethyl]-oxazole-4-carboxylic acid (4-chloro-phenyl)-methyl-amide] | 55 to 70% |  | 
O=C(Nc1ccc2c(c1)OC(F)(F)O2)c1coc(COc2ccc(CCCCn3ccnn3)cc2)n1 [Example 9, 2-[4-(4-[1,2,3]Triazol-1-yl-butyl)-phenoxymethyl]-oxazole-4-carboxylic acid (2,2-difluoro-benzo [1,3]dioxol-5-yl)-amide] | 55 to 70% | 116 nM | 
O=C(Nc1ccc(OC(F)(F)F)cc1)c1coc(COc2ccc(CCCCn3ccnn3)cc2)n1 [Example 10, 2-[4-(4-[1,2,3]Triazol-1-yl-butyl)-phenoxymethyl]-oxazole-4-carboxylic acid (4-trifluoro-methoxy-phenyl)-amide] |  |  | 75%
O=C(Nc1ccc(SC(F)(F)F)cc1)c1coc(COc2ccc(CCCCn3ccnn3)cc2)n1 [Example 11, 2-[4-(4-[1,2,3]Triazol-1-yl-butyl)-phenoxymethyl]-oxazole-4-carboxylic acid (4-trifluoro-methylsulfanyl-phenyl)-amide] |  |  | 69%
O=C(Nc1ccc(C(F)(F)F)cc1)c1coc(COc2ccc(CCCCn3ccnn3)cc2)n1 [Example 13, 2-[4-(4-[1,2,3]Triazol-1-yl-butyl)-phenoxymethyl]-oxazole-4-carboxylic acid (4-trifluoromethyl-phenyl)-amide] | > 80% | 5 to 500 nM | 
O=C(Nc1ccc(Cl)cc1F)c1coc(COc2ccc(CCCCn3ccnn3)cc2)n1 [Example 14, 2-[4-(4-[1,2,3]Triazol-1-yl-butyl)-phenoxymethyl]-oxazole-4-carboxylic acid (4-chloro-2-fluoro-phenyl)-amide] | 72% | 500 to 3000 nM | 
O=C(Nc1ccc(OC(F)F)cc1)c1coc(COc2ccc(CCCCn3ccnn3)cc2)n1 [Example 22, 2-[4-(4-[1,2,3]Triazol-1-yl-butyl)-phenoxymethyl]-oxazole-4-carboxylic acid (4-difluoromethoxy-phenyl)-amide] | 55 to 70% |  | 
O=C(Nc1ccc(F)cc1)c1coc(COc2ccc(CCCCn3ccnn3)cc2)n1 [Example 31, 2-[4-(4-[1,2,3]Triazol-1-yl-butyl)-phenoxymethyl]-oxazole-4-carboxylic acid (4-fluoro-phenyl)-amide] | 55 to 70% | 500 to 3000 nM | 
Cc1ccc(NC(=O)c2coc(COc3ccc(CCCCn4ccnn4)cc3)n2)cc1F [Example 36, 2-[4-(4-[1,2,3]Triazol-1-yl-butyl)-phenoxymethyl]-oxazole-4-carboxylic acid (3-fluoro-4-methyl-phenyl)-amide] | 70 to 80% | 5 to 500 nM | 
COc1ccc(NC(=O)c2coc(COc3ccc(CCCCn4ccnn4)cc3)n2)cc1 [Example 37, 2-[4-(4-[1,2,3]Triazol-1-yl-butyl)-phenoxymethyl]-oxazole-4-carboxylic acid (4-methoxy-phenyl)-amide] | 70 to 80% |  | 
O=C(Nc1ccc(OC(F)(F)F)cc1)c1nc(COc2ccc(CCCCn3ccnn3)cc2)cs1 [Example 39, 4-[4-(4-[1,2,3]Triazol-1-yl-butyl)-phenoxymethyl]-thiazole-2-carboxylic acid (4-trifluoromethoxy-phenyl)-amide] | 87% | 5 to 500 nM | 
O=C(Nc1ccc(S(F)(F)(F)(F)F)cc1)c1nc(COc2ccc(CCCCn3ccnn3)cc2)cs1 [Example 40, 4-[4-(4-[1,2,3]Triazol-1-yl-butyl)-phenoxymethyl]-thiazole-2-carboxylic acid (4-pentafluorosulfanyl-phenyl)-amide] | 70 to 80% | 5 to 500 nM | 
Cc1ccc(C(=O)Nc2nc(COc3ccc(CCCCn4ccnn4)cc3)cs2)cc1 [Example 52-14, 4-Methyl-N-{4-[4-(4-[1,2,3]triazol-1-yl-butyl)-phenoxymethyl]-thiazol-2-yl}-benzamide] |  | 5 to 500 nM | 
O=C(Nc1nc(COc2ccc(CCCCn3ccnn3)cc2)cs1)c1cc(F)ccc1F [Example 52-15, 2,5-Difluoro-N-{4-[4-(4-[1,2,3]triazol-1-yl-butyl)-phenoxymethyl]-thiazol-2-yl}-benzamide] |  | 5 to 500 nM | 
O=C(Nc1nc(COc2ccc(CCCCn3ccnn3)cc2)cs1)c1ccccc1Cl [Example 52-16, 2-Chloro-N-{4-[4-(4-[1,2,3]triazol-1-yl-butyl)-phenoxymethyl]-thiazol-2-yl}-benzamide] |  | 500 to 3000 nM | 
O=C(Nc1nc(COc2ccc(CCCCn3ccnn3)cc2)cs1)c1ccc(F)c(Cl)c1 [Example 52-19, 3-Chloro-4-fluoro-N-{4-[4-(4-[1,2,3]triazol-1-yl-butyl)-phenoxymethyl]-thiazol-2-yl}-benzamide] |  | 5 to 500 nM | 
O=C(Nc1nc(COc2ccc(CCCCn3ccnn3)cc2)cs1)c1ccc(OC(F)F)cc1 [Example 52-22, 4-Difluoromethoxy-N-{4-[4-(4-[1,2,3]triazol-1-yl-butyl)-phenoxymethyl]-thiazol-2-yl}-benzamide] |  | 5 to 500 nM | 
O=C(Nc1nc(COc2ccc(CCCCn3ccnn3)cc2)cs1)c1cc(F)cc(F)c1 [Example 52-23, 3,5-Difluoro-N-{4-[4-(4-[1,2,3]triazol-1-yl-butyl)-phenoxymethyl]-thiazol-2-yl}-benzamide] |  | 5 to 500 nM | 
O=C(Nc1nc(COc2ccc(CCCCn3ccnn3)cc2)cs1)c1cccc(F)c1 [Example 52-25, 3-Fluoro-N-{4-[4-(4-[1,2,3]triazol-1-yl-butyl)-phenoxymethyl]-thiazol-2-yl}-benzamide] |  | 5 to 500 nM | 
Cc1cc(C(=O)Nc2nc(COc3ccc(CCCCn4ccnn4)cc3)cs2)ccc1F [Example 52-26, 4-Fluoro-3-methyl-N-{4-[4-(4-[1,2,3]triazol-1-yl-butyl)-phenoxymethyl]-thiazol-2-yl}-benzamide] |  | 5 to 500 nM | 
FC(F)(F)c1ccc(C=Cc2nc(COc3ccc(CCCCn4ccnn4)cc3)co2)cc1 [reference compound, 1-[4-(4-{2-[2-(4-Trifluoromethyl-phenyl)-vinyl]-oxazol-4-ylmethoxy}-phenyl)-butyl]-1H-[1,2,3]triazole, reference compound] | 52% |  | 
